Reference: article PMC3445516 (PLoS ONE, 2012)

Key:
Assay in all cases: Ambit kinase profiling, competition binding
PDGFRA = biological target: T1, PDGFRA (Homo sapiens, UniProt P16234); conditions: compound concentration 10 uM, read-out: Percent Competition
T1 construct: purchased Ambit Biosciences (KINOMEscan)
From the text: (§1) Supplement pone.0044653.s004.xls, sheet "Compound 122" | column: Percent Competition

MARK3 = biological target: T2, MARK3 (Homo sapiens, UniProt P27448); conditions: compound concentration 10 uM, read-out: Percent Competition
T2 construct: purchased Ambit Biosciences (KINOMEscan)
From the text: as §1

TXK = biological target: T3, TXK (Homo sapiens, UniProt P42681); conditions: compound concentration 10 uM, read-out: Percent Competition
T3 construct: purchased Ambit Biosciences (KINOMEscan)
From the text: as §1

RIOK2 = biological target: T4, RIOK2 (Homo sapiens, UniProt Q9BVS4); conditions: compound concentration 10 uM, read-out: Percent Competition
T4 construct: purchased Ambit Biosciences (KINOMEscan)
From the text: as §1

FGFR3 = biological target: T5, FGFR3 (Homo sapiens, UniProt P22607); conditions: compound concentration 10 uM, read-out: Percent Competition
T5 construct: purchased Ambit Biosciences (KINOMEscan)
From the text: as §1

TEC = biological target: T6, TEC (Homo sapiens, UniProt P42680); conditions: compound concentration 10 uM, read-out: Percent Competition
T6 construct: purchased Ambit Biosciences (KINOMEscan)
From the text: as §1

MYLK = biological target: T7, MYLK (Homo sapiens, UniProt Q15746); conditions: compound concentration 10 uM, read-out: Percent Competition
T7 construct: purchased Ambit Biosciences (KINOMEscan)
From the text: as §1

LIMK1 = biological target: T8, LIMK1 (Homo sapiens, UniProt P53667); conditions: compound concentration 10 uM, read-out: Percent Competition
T8 construct: purchased Ambit Biosciences (KINOMEscan)
From the text: as §1

KIT(V559D,V654A) = biological target: T9, KIT(V559D,V654A) (Homo sapiens, UniProt P10721, V559D/V654A); conditions: compound concentration 10 uM, read-out: Percent Competition
T9 construct: purchased Ambit Biosciences (KINOMEscan)
From the text: as §1

HCK = biological target: T10, HCK (Homo sapiens, UniProt P08631); conditions: compound concentration 10 uM, read-out: Percent Competition
T10 construct: purchased Ambit Biosciences (KINOMEscan)
From the text: as §1

PRKG1 = biological target: T11, PRKG1 (Homo sapiens, UniProt Q13976); conditions: compound concentration 10 uM, read-out: Percent Competition
T11 construct: purchased Ambit Biosciences (KINOMEscan)
From the text: as §1

MAPKAPK5 = biological target: T12, MAPKAPK5 (Homo sapiens, UniProt Q8IW41); conditions: compound concentration 10 uM, read-out: Percent Competition
T12 construct: purchased Ambit Biosciences (KINOMEscan)
From the text: as §1

RET(V804M) = biological target: T13, RET(V804M) (Homo sapiens, UniProt P07949, V804M); conditions: compound concentration 10 uM, read-out: Percent Competition
T13 construct: purchased Ambit Biosciences (KINOMEscan)
From the text: as §1

ABL1(M351T) = biological target: T14, ABL1(M351T) (Homo sapiens, UniProt P00519, M351T); conditions: compound concentration 10 uM, read-out: Percent Competition
T14 construct: purchased Ambit Biosciences (KINOMEscan)
From the text: as §1

RIOK3 = biological target: T15, RIOK3 (Homo sapiens, UniProt O14730); conditions: compound concentration 10 uM, read-out: Percent Competition
T15 construct: purchased Ambit Biosciences (KINOMEscan)
From the text: as §1

MYLK2 = biological target: T16, MYLK2 (Homo sapiens, UniProt Q9H1R3); conditions: compound concentration 10 uM, read-out: Percent Competition
T16 construct: purchased Ambit Biosciences (KINOMEscan)
From the text: as §1

NEK1 = biological target: T17, NEK1 (Homo sapiens, UniProt Q96PY6); conditions: compound concentration 10 uM, read-out: Percent Competition
T17 construct: purchased Ambit Biosciences (KINOMEscan)
From the text: as §1

MAP4K5 = biological target: T18, MAP4K5 (Homo sapiens, UniProt Q9Y4K4); conditions: compound concentration 10 uM, read-out: Percent Competition
T18 construct: purchased Ambit Biosciences (KINOMEscan)
From the text: as §1

[1] = biological target: T19, JAK2(JH1domain-catalytic) (Homo sapiens, UniProt O60674); conditions: compound concentration 10 uM
T19 construct: JAK2(JH1domain-catalytic); purchased Ambit Biosciences (KINOMEscan)
From the text: as §1

PIK3CA(E545K) = biological target: T20, PIK3CA(E545K) (Homo sapiens, UniProt P42336, E545K); conditions: compound concentration 10 uM, read-out: Percent Competition
T20 construct: purchased Ambit Biosciences (KINOMEscan)
From the text: as §1

PIK3CA = biological target: T21, PIK3CA (Homo sapiens, UniProt P42336); conditions: compound concentration 10 uM, read-out: Percent Competition
T21 construct: purchased Ambit Biosciences (KINOMEscan)
From the text: as §1

PDPK1 = biological target: T22, PDPK1 (Homo sapiens, UniProt O15530); conditions: compound concentration 10 uM, read-out: Percent Competition
T22 construct: purchased Ambit Biosciences (KINOMEscan)
From the text: as §1

NEK9 = biological target: T23, NEK9 (Homo sapiens, UniProt Q8TD19); conditions: compound concentration 10 uM, read-out: Percent Competition
T23 construct: purchased Ambit Biosciences (KINOMEscan)
From the text: as §1

MAP4K3 = biological target: T24, MAP4K3 (Homo sapiens, UniProt Q8IVH8); conditions: compound concentration 10 uM
T24 construct: purchased Ambit Biosciences (KINOMEscan)
From the text: as §1

FGFR3(G697C) = biological target: T25, FGFR3(G697C) (Homo sapiens, UniProt P22607, G697C); conditions: compound concentration 10 uM, read-out: Percent Competition
T25 construct: purchased Ambit Biosciences (KINOMEscan)
From the text: as §1

MAPKAPK2 = biological target: T26, MAPKAPK2 (Homo sapiens, UniProt P49137); conditions: compound concentration 10 uM, read-out: Percent Competition
T26 construct: purchased Ambit Biosciences (KINOMEscan)
From the text: as §1

PFTK1 = biological target: T27, PFTK1 (Homo sapiens, UniProt O94921); conditions: compound concentration 10 uM
T27 construct: purchased Ambit Biosciences (KINOMEscan)
From the text: as §1

VEGFR2 = biological target: T28, VEGFR2 (Homo sapiens, UniProt P35968); conditions: compound concentration 10 uM, read-out: Percent Competition
T28 construct: purchased Ambit Biosciences (KINOMEscan)
From the text: as §1

PAK3 = biological target: T29, PAK3 (Homo sapiens, UniProt O75914); conditions: compound concentration 10 uM, read-out: Percent Competition
T29 construct: purchased Ambit Biosciences (KINOMEscan)
From the text: as §1

TIE1 = biological target: T30, TIE1 (Homo sapiens, UniProt P35590); conditions: compound concentration 10 uM, read-out: Percent Competition
T30 construct: purchased Ambit Biosciences (KINOMEscan)
From the text: as §1

DRAK2 = biological target: T31, DRAK2 (Homo sapiens, UniProt O94768); conditions: compound concentration 10 uM, read-out: Percent Competition
T31 construct: purchased Ambit Biosciences (KINOMEscan)
From the text: as §1

MST2 = biological target: T32, MST2 (Homo sapiens, UniProt Q13188); conditions: compound concentration 10 uM, read-out: Percent Competition
T32 construct: purchased Ambit Biosciences (KINOMEscan)
From the text: as §1

IKK-epsilon = biological target: T33, IKK-epsilon (Homo sapiens, UniProt Q14164); conditions: compound concentration 10 uM, read-out: Percent Competition
T33 construct: purchased Ambit Biosciences (KINOMEscan)
From the text: as §1

ULK3 = biological target: T34, ULK3 (Homo sapiens, UniProt Q6PHR2); conditions: compound concentration 10 uM
T34 construct: purchased Ambit Biosciences (KINOMEscan)
From the text: as §1

DLK = biological target: T35, DLK (Homo sapiens, UniProt Q12852); conditions: compound concentration 10 uM
T35 construct: purchased Ambit Biosciences (KINOMEscan)
From the text: as §1

FAK = biological target: T36, FAK (Homo sapiens, UniProt Q05397); conditions: compound concentration 10 uM, read-out: Percent Competition
T36 construct: purchased Ambit Biosciences (KINOMEscan)
From the text: as §1

WEE2 = biological target: T37, WEE2 (Homo sapiens, UniProt P0C1S8); conditions: compound concentration 10 uM, read-out: Percent Competition
T37 construct: purchased Ambit Biosciences (KINOMEscan)
From the text: as §1

BMPR2 = biological target: T38, BMPR2 (Homo sapiens, UniProt Q13873); conditions: compound concentration 10 uM
T38 construct: purchased Ambit Biosciences (KINOMEscan)
From the text: as §1

NEK5 = biological target: T39, NEK5 (Homo sapiens, UniProt Q6P3R8); conditions: compound concentration 10 uM, read-out: Percent Competition
T39 construct: purchased Ambit Biosciences (KINOMEscan)
From the text: as §1

CSNK2A2 = biological target: T40, CSNK2A2 (Homo sapiens, UniProt P19784); conditions: compound concentration 10 uM, read-out: Percent Competition
T40 construct: purchased Ambit Biosciences (KINOMEscan)
From the text: as §1

PYK2 = biological target: T41, PYK2 (Homo sapiens, UniProt Q14289); conditions: compound concentration 10 uM, read-out: Percent Competition
T41 construct: purchased Ambit Biosciences (KINOMEscan)
From the text: as §1

- inhibition at 10 µM (PDGFRA): < 50%
- inhibition at 10 µM (MARK3): < 50%
- inhibition at 10 µM (TXK): < 50%
- inhibition at 10 µM (RIOK2): < 50%
- inhibition at 10 µM (FGFR3): < 50%
- inhibition at 10 µM (TEC): < 50%
- inhibition at 10 µM (MYLK): < 50%
- inhibition at 10 µM (LIMK1): < 50%
- inhibition at 10 µM (KIT(V559D,V654A)): < 50%
- inhibition at 10 µM (HCK): < 50%
- inhibition at 10 µM (PRKG1): < 50%
- inhibition at 10 µM (MAPKAPK5): < 50%
- inhibition at 10 µM (RET(V804M)): < 50%
- inhibition at 10 µM (ABL1(M351T)): < 50%
- inhibition at 10 µM (RIOK3): < 50%
- inhibition at 10 µM (MYLK2): < 50%
- inhibition at 10 µM (NEK1): < 50%
- inhibition at 10 µM (MAP4K5): < 50%
- Percent Competition [1]: <50%
- inhibition at 10 µM (PIK3CA(E545K)): < 50%
- inhibition at 10 µM (PIK3CA): < 50%
- inhibition at 10 µM (PDPK1): < 50%
- Percent Competition (MAP4K3): <50%
- inhibition at 10 µM (FGFR3(G697C)): < 50%
- inhibition at 10 µM (MAPKAPK2): < 50%
- Percent Competition (PFTK1): <50%
- inhibition at 10 µM (VEGFR2): < 50%
- inhibition at 10 µM (PAK3): < 50%
- inhibition at 10 µM (TIE1): < 50%
- inhibition at 10 µM (DRAK2): < 50%
- inhibition at 10 µM (MST2): < 50%
- inhibition at 10 µM (IKK-epsilon): < 50%
- Percent Competition (ULK3): <50%
- Percent Competition (DLK): <50%
- inhibition at 10 µM (FAK): < 50%
- inhibition at 10 µM (WEE2): < 50%
- Percent Competition (BMPR2): <50%
- inhibition at 10 µM (NEK5): < 50%
- inhibition at 10 µM (CSNK2A2): < 50%
- inhibition at 10 µM (PYK2): < 50%
SMILES: Fc1ccc(-c2c(-c3ccncc3)[nH]c3nccnc23)cc1 [RO1155697-000-005]
- inhibition at 10 µM (NEK9): < 50%
